Data: patent publication US9440926B2, “Antiviral compounds and methods” (Biotron Limited, priority 2005, dated 2016)
Read-outs that look alike come from different tables or passages of the source.

Key:
Format in all cases: cell-based
Den M = biological target: T1, Den M (Dengue virus type 1, UniProt P33478); experiment: Bacterial bioassay, Den M; parameters: scale not given here; conditions: mean bacterial bioassay score; M protein of Dengue virus
T1 construct: expressed in transfected cells
Excerpt: (§1) The bacterial bioassay method used in the present example to test the anti-viral activity of the compounds against different viral targets was described in detail in PCT/2004/000866, incorporated in its entirety herein by reference. Vpu, p7 and M referred to in the table are small membrane proteins encoded by HIV, HCV and Dengue viruses, respectively, which have functional activities supporting viral growth and/or replication.

Vpu = biological target: T2, Vpu (Human immunodeficiency virus type 1 group M subtype B, UniProt P05919); experiment: Bacterial bioassay, Vpu; conditions: mean bacterial bioassay score; Vpu of HIV
T2 construct: expressed in transfected cells
T2 sequence (P05919 whole entry): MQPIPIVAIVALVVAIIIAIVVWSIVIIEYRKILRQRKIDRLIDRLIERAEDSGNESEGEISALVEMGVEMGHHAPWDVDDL
Excerpt: as §1

[1] = Cytotoxicity to cells in the viral inhibition assay (MTT assay); conditions: human, primary human macrophages, read-out: TC50 (the source's name)
Experimental: The toxicity of test compounds to cells in the viral inhibition assay was determined using the MTT assay (Pauwels R, et al. (1988); D'Cruz O J et al. (1999); Joo H. (2003)). This method utilises Thiazolyl Blue (MTT), which is added to the cell culture (100 ug/well), and incubated for 4-5 hours whilst the live, metabolically active cells convert the chemical to its purple coloured metabolite, which forms intracellular crystals. The purple colour is measured colourimetrically (570-590 nm) once cells have been permeabilised using acidified isopropanol containing 10% triton X-100. The most intense colour development occurs in wells where the metabolising cells are most numerous. […] Those values were estimated manually from the Percentage Viability vs Concentration dose response curves (FIG. 1). The compound toxicity to cells in culture was taken into account in inhibition experiments and in separate experiments involving increased concentrations of compound. TC50 values were estimated in separate experiments (not shown) where concentrations of compound were greater.

HIV-1 strain Ba-L = experiment: HIV-1 Ba-L growth inhibition in primary macrophages (p24 ELISA); conditions: for IC50: Human immunodeficiency virus 1, BAL, Primary macrophage; for AI (Antiviral Index): calculated by formula from TC50 and IC50, HIV-1Ba-L in primary macrophages
Experimental: The inhibition specifically of HIV-1 growth by the compounds of the invention was tested in primary macrophages in vitro using a method similar to that used to assess antibody neutralization (VanCott T C et al (1999)). In the present case, the laboratory adapted HIV-1 strain Ba-L was used, which is known to infect macrophages.
Peripheral Blood Mononuclear Cells (PBMC) were prepared from healthy donors using buffy-coat packs obtained from the Australian Red Cross Blood Service (ARCBS). Blood was received the day following donation, and had been depleted of serum and platelets, leaving a small volume (less than 100 mL) of concentrated leukocytes.
Leukocytes were separated from blood cells and granulocytes by density gradient centrifugation (Ficoll Paque) and washed extensively in PBS^− (without Ca/Mg) to remove platelets. Recovered cells were allowed to adhere to plastic tissue culture flasks (Becton Dickinson) for 2 hr, 37° C., 5% CO2, in media (DMEM (high)/10% AB serum/50 ug/mL gentamicin/2 mM L-glutamine) during which time the myeloid cells formed an adherent monolayer leaving lymphocytes unattached.
Non-adherent lymphocytes were removed by washing with warm PBS^+ (with Ca/Mg) and were generally discarded. In some cases those cells were recovered and frozen in media/10% DMSO for use in viral stock infections. The adherent monocytes were recovered by scraping gently with a plastic cell scraper. The myeloid cells were then plated into 96-well plates at a cell concentration of 1.5×10^6/mL, and allowed to fully differentiate over a period of 14 days.
Macrophages were allowed to differentiate over a 14 day period, with media changes as required. On day 14, cells were infected in the presence of decreasing concentrations of BIT compounds over a range 0-10 μM. Samples of 25 μL culture supernatants were removed from each well on day 7 and fresh media plus compound dilution was added.
After 7 days the samples with and without compound were analysed to assess the level of virus present in the wells, using a p24 ELISA (Innotest). Virus levels in samples were converted to “percentage of control virus growth” values based on the controls (containing no compound). From that dose response curve (example FIG. 1) the IC50 was calculated and used as a measure of compound anti-HIV activity.

HCV p7 = biological target: T3, HCV p7 (Hepatitis C virus genotype 1a, UniProt P27958); experiment: Bacterial bioassay, HCV p7; parameters: scale not given here; conditions: mean bacterial bioassay score; p7 of HCV
T3 construct: expressed in transfected cells
T3 sequence (P27958 747-809): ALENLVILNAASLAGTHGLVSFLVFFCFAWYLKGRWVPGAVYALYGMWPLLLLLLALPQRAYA
Excerpt: as §1

[2] = additional compounds, same assay system, MTT
[3] = additional compounds, same assay system (HIV-1Ba-L, primary macrophages), estimated from dose response curves, read-out: Estimated IC50
[4] = 50% cell viability, MTT assay, estimated in separate experiments at greater compound concentrations
[5] = 168 h, against HIV-1Ba-L in primary macrophages, p24 ELISA after 7 days, estimated from dose response curves (FIG. 1), 0-10 μM, read-out: IC50

T1 sequence (P33478 206-280): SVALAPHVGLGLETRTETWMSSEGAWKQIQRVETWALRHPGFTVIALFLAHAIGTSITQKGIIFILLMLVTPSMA

Row | Structure (SMILES) | Average Bacterial Assay Score, Den M (Den M) | Average Bacterial Assay Score, Vpu (Vpu) | CC50 [1, 2] | IC50 (HIV-1 strain Ba-L; [3]) | Average Bacterial Assay Score, HCV p7 (HCV p7) | CC50 [1, 4] | IC50 (HIV-1 strain Ba-L; [5]) | AI (Antiviral Index) (HIV-1 strain Ba-L)
1 | N=C(N)NC(=O)c1ccc2c(Cl)cccc2c1 [BIT313, (5-chloro-2-napthoyl)guanidine] | 3.00 | 0.30 | 10 to 50 µM | < 2.5 µM | 1.30 |  |  | 
2 | CC(=O)O.Cn1cc(-c2ccc3cc(C(=O)NC(=N)N)ccc3c2)cn1 [BIT314, (6-(1-methylpryazol-4-yl)-2-napthoyl)guanidinium acetate] | 1.60 | 0.00 |  |  | 3.30 |  |  | 
3 | COc1cc(C(=O)NC(=N)N)c(OC)c2ccccc12 [BIT304, (1,4-dimethoxy-2-napthoyl)guanidine] | 1.90 | 0.62 | 10 to 50 µM | < 10 µM | 0.33 |  |  | 
4 | N=C(N)NC(=O)/C=C/c1cccc(C(=O)c2ccccc2)c1 [BIT216, (3-benzoyl)cinnamoylguanidine] | 1.5 | 1.3 |  |  | 1.3 | 25 to 495 µM | 0.9 µM | 28-550
5 | N=C(N)NC(=O)c1ccc2c(-c3ccccc3)cccc2c1 [BIT307, (5-phenyl-2-napthoyl)guanidine] | 2.40 | 0.12 | 10 to 50 µM | < 0.63 µM | 0.08 |  |  | 
6 | COc1ccc(-c2cccc3cc(C(=O)NC(=N)N)ccc23)c(OC)n1 [BIT315, (5-(2,6-dimethoxypyridin-3-yl)-2-napthoyl)guanidine] | 1.00 | 0.20 |  |  | 0.30 |  |  | 
7 | COc1cc2ccccc2cc1C(=O)NC(=N)N [BIT302, (3-methoxy-2-napthoyl)guanidine] | 0.50 | 1.04 | > 50 µM | < 2.5 µM | 0.42 |  |  | 
8 | N=C(N)NC(=O)/C=C/c1cccc2c1OCO2 [BIT217, 2,3-methylenedioxycinnamoyl guanidine] |  | 1.8 |  |  | 1.0 | > 100 µM | 1.1 µM | >91
9 | Cc1nn(C)c(C)c1-c1cccc2cc(C(=O)NC(=N)N)ccc12 [BIT309, (5-(1,3,5-trimethylpyrazol-4-yl)-2-napthoyl)guanidine] | 0.00 | 0.12 | > 50 µM | > 10 µM | 0.00 |  |  | 
10 | CC(=O)Nc1cccc(-c2cccc3cc(C(=O)NC(=N)N)ccc23)c1 [BIT318, (5-(3-(acetylamino)phenyl)-2-napthoyl)guanidine] | 0.35 | 2.00 |  |  | 0.30 |  |  | 
11 | N=C(N)NC(=O)c1ccc2c(-c3ccsc3)cccc2c1 [BIT224, 5-thiophen-3-yl-2-naphthoylguanidine] | 1.3 | 2.2 |  |  | 1.1 | > 200 µM | 1 µM | >100
12 | N=C(N)NC(=O)/C=C/c1cccc2c1CCC2 [BIT222, 3(indan-4-yl)-propenoylguanidine] | 2.2 | 1.2 |  |  | 2.0 | > 100 µM | > 10 µM | >10
13 | N=C(N)NC(=O)c1ccc2cc(-c3ccsc3)ccc2c1 [BIT305, (6-(3-thienyl)-2-napthoyl)guanidine] | 1.15 | 0.38 | < 10 µM | < 0.63 µM | 0.00 |  |  | 
14 | CS(=O)(=O)Nc1ccc(-c2cccc3cc(C(=O)NC(=N)N)ccc23)cc1 [BIT319, (5-(4-((methylsulphonyl)amino)phenyl)-2-napthoyl)guanidine] | 0.15 | 0.00 |  |  | 0.00 |  |  | 
15 | N=C(N)NC(=O)C=Cc1cccc(Br)c1 [BIT067, (3-Bromocinnamoyl)guanidine, reference compound] |  | 2.88 |  |  |  |  |  | 
16 | COc1ccc2cc(C(=O)NC(=N)N)ccc2c1Br [BIT223, 5-bromo-6-methoxy-2-napthoylguanidine] |  | 0 |  |  | 0.0 | > 300 µM | 0.3 µM | >1000
17 | N=C(N)NC(=O)C=CC=Cc1ccccc1Br [BIT128, 5-(2′-bromophenyl)penta-2,4-dienoylguanidine, reference compound] | 2.87 |  |  |  |  |  |  | 
18 | CC(=O)Nc1ccc(-c2cccc3cc(C(=O)NC(=N)N)ccc23)cc1 [BIT317, (5-(4-(acetylamino)phenyl)-2-napthoyl)guanidine] | 0.40 | 0.00 |  |  | 0.20 |  |  | 
19 | N=C(N)NC(=O)c1ccc2c(-c3ccccc3Cl)cccc2c1 [BIT316, (5-(2-chlorophenyl)-2-napthoyl)guanidine] | 0.50 | 0.20 |  |  | 0.80 |  |  | 
20 | N=C(N)NC(=O)C=Cc1cc(Br)ccc1F [BIT124, 5-bromo-2-fluorocinnamoylguanidine, reference compound] |  |  |  |  | 2.25 |  |  | 
21 | N=C(N)NC(=O)C=Cc1ccc(Cl)c(Cl)c1 [BIT300, 3,4-dichlorocinnamoyl guanidine] | 3.40 | 1.52 |  |  | 0.67 |  |  | 
